Results on two compounds are retold here after US10501805B2, “Methods for determining responsiveness to MEK/ERK inhibitors” (CROWN BIOSCIENCE, INC. (TAICANG), priority 2014, dated 2019).

Common to all, as to experiment: CellTiter-Glo cell viability, IC50 determination
Assay type in all cases: cell-based
On the technique in general: In ATP-based viability assays light output follows the ATP content of the culture.

The test system of one experiment is HCC4006. As to conditions: Homo sapiens, 72 h; HCC4006 cell line; 3-day CTG assay; read-out: Absolute IC50. On the procedure: (§1) All the cells will be cultured in the media supplemented with 10% FBS except for which are marked specially, in the temperature of 37° C., 5% CO2 and 95% humidity.
(§2) Cell viability is assayed by using CellTiter-Glo® Luminescent Cell Viability Assay Kit (Cat. No.: G7572, Promega. Store at −20° C.). To prepare the CellTiter_Glo Reagent, the CellTiter-Glo Buffer was thawed and equilibrated to room temperature prior to use. For convenience the CellTiter-Glo Buffer may be thawed and stored at room temperature for up to 48 hours prior to use. The lyophilized CellTiter-Glo Substrate is equilibrated to room temperature prior to use. The appropriate volume (100 ml) of CellTiter-Glo Buffer is transferred into the amber bottle containing CellTiter-Glo Substrate to reconstitute the lyophilized enzyme/substrate mixture, which forms the CellTiter-Glo Reagent. In certain cases, the entire liquid volume of the CellTiter-Glo Buffer bottle may be added to the CellTiter-Glo Substrate vial. Mix by gently vortexing, swirling or by inverting the contents to obtain a homogeneous solution. The CellTiter-Glo Substrate should go into solution easily in less than one minute.
(§3) The day before the experiment (Day −1), cells were dissociated during the logarithmic growth period with Cell Disassociation Buffer (Gibco 13151-014) and mixed with appropriate cell media and centrifuge at 1000 rpm for 3 minutes. The cells were re-suspended and counted using Countstar before adjusting cell concentrations to optimized density (i.e. 4.44×10^4 cells/ml) with respective culture medium listed in Table 1 for 3-day CTG assay (The cell density was optimized before actual study; cell density used in the test may vary for different cell lines). 90 μl cell suspensions were added to two 96-well plates (plates A and B) with the final cell density of 4×10^3 cells/well for 3-day CTG assay (the cell density was optimized before actual study; cell density used in the test may vary for different cell lines). The plate A and B group were incubated for overnight in humidified incubator at 37° C. with 5% CO2.
(§4) On Day 0, for plate A group, 10 μl culture medium was added to each well for T0 reading. CellTiter-Glo® Reagent was added at equal volume of cell culture medium present in each well (e.g., add 100 μl of reagent to 100 μl of medium containing cells for a 96-well plate). Contents were mixed for 2 minutes on an orbital shaker to facilitate cell lysis. The plate was allowed to incubate at room temperature for 10 minutes to stabilize luminescent signal. Backseal black sticker was added to the bottom of each plate. Luminescence was recorded using EnVision Multi Label Reader. This formed the basis for T0 value.
(§5) On Day 0, the test articles and positive controls were dissolved at the concentration indicated at Test Article Dilution map. 100× solution in PBS was prepared and then diluted with appropriate culture media (1:10) into 10×working solutions. 10 μl (10×) drug solutions were dispensed in each well (triplicate for each drug concentration) of the plate B group according to plate inoculation map. The test plates were incubated for […] in the humidified incubator at 37° with 5% CO2.
(§6) On Day 3, CellTiter-Glo® Reagent was added at equal volume of cell culture medium present in each well (e.g., add 100 μl of reagent to 100 μl of medium containing cells for a 96-well plate). Contents were mixed for 2 minutes on an orbital shaker to induce cell lysis. The plate was allowed to incubate at room temperature for 10 minutes to stabilize luminescent signal. Backseal black sticker was placed to the bottom of each plate. Luminescence was recorded using EnVision Multi Label Reader.
(§7) In order to calculate IC50s, a dose-response curve was fitted using a nonlinear regression model with a sigmoidal dose response. The formula for calculating surviving rate was shown below; Absolute IC50 is calculated where Y axis set at 50% using GraphPad Prism 5.0. Software. […]

A further experiment relates to Calu6. As to conditions: Homo sapiens, Calu-6, 72 h; Calu6 cell line; 3-day CTG assay; read-out: Absolute IC50. On the procedure: as §1, §2, §3, §4, §5, §6, §7
Another experiment concerns SW620. The conditions noted are these: Homo sapiens, SW-620, 72 h; SW620 cell line; 3-day CTG assay; read-out: Absolute IC50. The procedure:
as §1, §2, §3, §4, §5, §6, §7

Another experiment deals with MDA-MB-231. As to conditions: Homo sapiens, 72 h; MDA-MB-231 cell line; 3-day CTG assay; read-out: Absolute IC50. On the procedure: as §1, §2, §3, §4, §5, §6, §7
Another experiment has as its system HT29. As to conditions: Homo sapiens, HT-29, 72 h; HT29 cell line; 3-day CTG assay; read-out: Absolute IC50. On the procedure: as §1, §2, §3, §4, §5, §6, §7
In the next experiment the test system is HCT-15. The conditions noted are these: Homo sapiens, 72 h; HCT-15 cell line; 3-day CTG assay; read-out: Absolute IC50. On the procedure: as §1, §2, §3, §4, §5, §6, §7
The subject of a further experiment is HCT116. The conditions noted are these: Homo sapiens, HCT-116, 72 h; HCT116 cell line; 3-day CTG assay; read-out: Absolute IC50. On the procedure: as §1, §2, §3, §4, §5, §6, §7
Another experiment relates to NCI-H1792. The conditions noted are these: Homo sapiens, 72 h; NCI-H1792 cell line; 3-day CTG assay; read-out: Absolute IC50. The procedure: as §1, §2, §3, §4, §5, §6, §7
For the next experiment, the system named is NCI-H358. The conditions noted are these: Homo sapiens, 72 h; NCI-H358 cell line; 3-day CTG assay; read-out: Absolute IC50. On the procedure:
as §1, §2, §3, §4, §5, §6, §7

The next experiment deals with HM-7. The conditions noted are these: 72 h; HM-7 cell line; 3-day CTG assay; read-out: Absolute IC50. The procedure:
as §1, §2, §3, §4, §5, §6, §7

For the next experiment, the system named is A549. The conditions noted are these: Homo sapiens, 72 h; A549 cell line; 3-day CTG assay; read-out: Absolute IC50. On the procedure: as §1, §2, §3, §4, §5, §6, §7
In a further experiment the test system is 22RV1. As to conditions: Homo sapiens, 72 h; 22RV1 cell line; 3-day CTG assay; read-out: Absolute IC50. On the procedure: as §1, §2, §3, §4, §5, §6, §7
The next experiment relates to NCI-H23. As to conditions: Homo sapiens, 72 h; NCI-H23 cell line; 3-day CTG assay; read-out: Absolute IC50. The procedure:
as §1, §2, §3, §4, §5, §6, §7

A further experiment deals with LS513. As to conditions: Homo sapiens, LS-513, 72 h; LS513 cell line; 3-day CTG assay; read-out: Absolute IC50. The procedure: as §1, §2, §3, §4, §5, §6, §7
A further experiment deals with DLD-1. As to conditions: Homo sapiens, 72 h; DLD-1 cell line; 3-day CTG assay; read-out: Absolute IC50. The procedure: as §1, §2, §3, §4, §5, §6, §7
The subject of another experiment is SNU-1. As to conditions: Homo sapiens, SNU1, 72 h; SNU-1 cell line; 3-day CTG assay; read-out: Absolute IC50. The procedure: as §1, §2, §3, §4, §5, §6, §7

The term IC50 denotes the concentration at which inhibition is half-maximal.

On to `CC(=O)Nc1cccc(-n2c(=O)n(C3CC3)c(=O)c3c(Nc4ccc(I)cc4F)n(C)c(=O)c(C)c32)c1` [Trametinib, N-(3-{3-Cyclopropyl-5-[(2-fluoro-4-iodophenyl)amino]-6,8-dimethyl-2,4,7-trioxo-3,4,6,7-tetrahydropyrido[4,3-d]pyrimidin-1(2H)-yl}phenyl)acetamide], for which the IC50 with HCC4006 worked out at 410 nM; in the experiment with Calu6, 140 nM; in the experiment on SW620 it was 10 nM; in the experiment with MDA-MB-231, 24000 nM; in the experiment on HT29, 10 nM; in the experiment with HCT-15, 29300 nM. The IC50 with HCT116 was found to be 40 nM; with NCI-H1792, 160 nM; in the experiment on NCI-H358 it was 50 nM; in the experiment with HM-7 it was 390 nM; with A549, 240 nM; with 22RV1, 202000 nM. Also, the IC50 in the experiment with NCI-H23 worked out at 300 nM; in the experiment on LS513, 10 nM; with DLD-1, 6520 nM; in the experiment with SNU-1 it was 100 nM.
As for `O=C(Nc1ccc2[nH]nc(-c3ccncc3)c2c1)[C@@H]1CCN(CC(=O)N2CCN(c3ccc(-c4ncccn4)cc3)CC2)C1` [SCH772984, (R)-1-(2-oxo-2-(4-(4-(pyrimidin-2-yl)phenyl)piperazin-1-yl)ethyl)-N-(3-(pyridin-4-yl)-1H-indazol-5-yl)pyrrolidine-3-carboxamide], the IC50 in the experiment on HCC4006 is 2770 nM; in the experiment on Calu6, 560 nM; in the experiment with SW620, 260 nM; in the experiment on MDA-MB-231 it was 32300 nM; with HT29 it was 230 nM; in the experiment on HCT-15, 15600 nM. Further, the IC50 stood at 450 nM with HCT116; 4700 nM in the experiment on NCI-H1792; 520 nM in the experiment on NCI-H358; 790 nM with HM-7; 1780 nM in the experiment on A549; 5010 nM in the experiment on 22RV1. Also, the IC50 in the experiment on NCI-H23 came to 3690 nM; with LS513, 780 nM; in the experiment on DLD-1, 52800 nM; with SNU-1, 640 nM.
